Laboratory results: PMC11855827, “High-Throughput Screening of Five Compound Libraries for Anthelmintic Activity and Toxicity Leads to the Discovery of Two Flavonoid Compounds” (International Journal of Molecular Sciences, 2025)
Values joined by “and” are separate entries in the source; they are usually repeats but may differ in a detail not shown here. Identical values can stand only once. Like-named read-outs stand apart in the source and are kept apart here.

System: C. elegans
[1] = Table S2, C. elegans SS assay, 110 μM, 0 h, averages of 4 data points
[2] = Table S2, C. elegans SS assay, 110 μM, 24 h, averages of 4 data points

| Compound | Percentage of motility inhibition 0 h [1] | Percentage of motility inhibition 24 h [2] | Percentage of motility inhibition 0 h (110 µM) [%] | Percentage of motility inhibition 24 h (110 µM) [%] |
| --- | --- | --- | --- | --- |
| C[C@@H]1O[C@@H](O[C@H]2[C@H](O[C@H]3CC[C@@]4(C)[C@@H](CC[C@]5(C)[C@@H]4CC=C4[C@@H]6CC(C)(C)CC[C@]6(C(=O)O[C@@H]6O[C@H](CO[C@@H]7O[C@H](CO)[C@@H](O)[C@H](O)[C@H]7O)[C@@H](O)[C@H](O)[C@H]6O)CC[C@]45C)[C@]3(C)CO)OC[C@H](O)[C@@H]2O)[C@H](O)[C@H](O[C@@H]2O[C@H](CO)[C@@H](O[C@@H]3O[C@H](CO)[C@@H](O)[C@H](O)[C@H]3O)[C@H](O)[C@H]2O)[C@H]1O [Macranthoidin B] | 6% | 0% | – | – |
| O=C1C=C2C=C[C@@H]3C[C@@]2(O1)[C@@H]1CCCCN31 [Allosecurinine] | 23% | 29% | – | – |
| CN1CCN2c3ccccc3Cc3ccccc3C2C1.Cl (stereo not shown) [Mianserin (hydrochloride)] | 0% | 0% | – | – |
| Cc1ccc(C(N)=O)cn1 [6‐Methylni cotinamid e] | 0% | 0% | – | – |
| Cc1cc(-n2c(=O)[nH]c(=O)n(C)c2=O)ccc1Oc1ccc(S(=O)(=O)C(F)(F)F)cc1 [Toltrazuril (sulfone)] | 38% | 12% | – | – |
| CC(=O)[C@H]1CC[C@H]2[C@@H]3CC=C4C[C@@H](OS(=O)(=O)[O-])CC[C@]4(C)[C@H]3CC[C@]12C.[Na+] [Pregnenolone monosulfate (sodium)] | 0% | 0% | – | – |
| COc1cc(O)c(CC=C(C)C)c2c1C(=O)C[C@@H](c1ccc(O)cc1)O2 [(2S)‐Isoxanthohumol] | 0% | 2% | – | – |
| CC1(C)CC[C@]2(C(=O)O)CC[C@]3(C)C(=CC[C@@H]4[C@@]5(C)CC[C@H](O[C@@H]6O[C@H](C(=O)O)[C@@H](O)[C@H](O[C@@H]7OC[C@@H](O)[C@H](O)[C@H]7O[C@@H]7O[C@H](CO)[C@@H](O)[C@H](O)[C@H]7O)[C@H]6O)C(C)(C)[C@@H]5CC[C@]43C)[C@@H]2C1 | 0% | 0% | – | – |
| COC(=O)C1=CCCNC1.Cl [Guvacoline (hydrochloride)] | 0% | 0% | – | – |
| CC(=O)OC[C@H]1O[C@@H](OC[C@H]2O[C@@H](OC(=O)[C@]34CCC(C)(C)C[C@H]3C3=CC[C@@H]5[C@@]6(C)CC[C@H](O[C@@H]7OC[C@H](O)[C@H](O)[C@H]7O[C@@H]7O[C@H](CO)[C@@H](O)[C@H](O)[C@H]7O)C(C)(C)[C@@H]6CC[C@@]5(C)[C@]3(C)CC4)[C@H](O)[C@@H](O)[C@@H]2O)[C@H](O)[C@@H](O)[C@@H]1O[C@@H]1O[C@@H](C)[C@H](O)[C@@H](O)[C@H]1O [Acanthopanaxoside B] | 0% | 0% | – | – |
| Hydroxysafflor yellow A | – | – | 36 | 12 |
| CC(C)(O)[C@H]1CC[C@@](C)([C@H]2[C@@H](O)C[C@@]3(C)[C@@H]4C[C@H](O)[C@H]5C(C)(C)[C@@H](O)CC[C@@]56C[C@@]46CC[C@]23C)O1 [Cyclogalegenin] | 22% | 9% | – | – |
| CC1(C)S[C@@H]2[C@H](NC(=O)[C@H](N)c3ccccc3)C(=O)N2[C@H]1C(=O)[O-].[Na+] [Ampicillin (sodium)] | 24% | 1% | – | – |
| COc1cc2c(cc1OC)-c1c(C)c3ccc(OC)c(OC)c3c[n+]1CC2.O=[N+]([O-])[O-] [Dehydrocorydaline (nitrate)] | 5% | 0% | – | – |
| O=C(O)[C@H]1O[C@@H](Oc2cc(O)c3c(=O)cc(-c4ccc(O)cc4)oc3c2)[C@H](O)[C@@H](O)[C@@H]1O [Apigenin‐7‐glucuronide] | 23% | 3% | – | – |
| Cc1ncc([N+](=O)[O-])n1CC(O)CCl (stereo not shown) [Ornidazole (Levo‐)] | 27% | 23% | – | – |
| C=C1[C@H]2C[C@H]2[C@]2(C)Cc3occ(C)c3[C@H](O)[C@@H]12 [Lindenenol] | 0% | 19% | – | – |
| C=C1[C@H]2CC[C@@H]3[C@H]2C(C)(C)CCC[C@]13C [(+)-Longifolene] | 3% | 1% | – | – |
| COc1cc2c(=O)c(-c3ccc(O)cc3)coc2cc1O[C@@H]1O[C@H](CO)[C@@H](O)[C@H](O)[C@H]1O [Glycitin] | 30% | 4% | – | – |
| CC(/C=C/C=C(\C)C(=O)[O-])=C\C=C\C=C(C)\C=C\C=C(/C)C(=O)[O-].[Na+].[Na+] [Crocetin (disodium)] | 0% | 5% | – | – |

| Compound | Percentage of motility inhibition 0 h [1] | Percentage of motility inhibition 24 h [2] | Percentage of motility inhibition 0 h (110 µM) [%] | Percentage of motility inhibition 24 h (110 µM) [%] |
| --- | --- | --- | --- | --- |
| Nc1ncnc2c1ncn2[C@H]1C[C@H](O)[C@@H](COP(=O)([O-])OP(=O)([O-])OP(=O)([O-])O)O1.[Na+].[Na+].[Na+] | 21% | 0% | – | – |
| COc1cc2c(cc1O)C[C@H]1c3cc(O)c(OC)cc3CC[N+]1(C)C2.[Cl-] (stereo partly shown) [Phellodendrine (chloride)] | 25% | 7% | – | – |
| C[C@@H]1O[C@@H](O[C@H]2[C@H](OC(=O)[C@]34CCC(C)(C)C[C@H]3C3=CC[C@@H]5[C@@]6(C)C[C@H](O)[C@H](O[C@@H]7O[C@H](CO)[C@@H](O)[C@H](O)[C@H]7O)[C@@](C)(CO)[C@@H]6CC[C@@]5(C)[C@]3(C)CC4)O[C@H](CO)[C@@H](O)[C@@H]2O)[C@H](O)[C@H](O)[C@H]1O[C@@H]1OC[C@@H](O)[C@H](O)[C@H]1O [Polygalasaponin F] | 5% | 0% | – | – |
| C[C@@H](CO)[C@@H]1CC[C@@]2(CC[C@]3(C)[C@H](CC[C@@H]4[C@@]5(C)CC[C@H](O[C@@H]6O[C@H](CO)[C@@H](O)[C@H](O)[C@H]6O[C@@H]6O[C@H](CO)[C@@H](O)[C@H](O)[C@H]6O)[C@@](C)(CO[C@@H]6O[C@H](CO)[C@@H](O)[C@H](O)[C@H]6O)[C@@H]5CC[C@]43C)[C@H]2O)CO1 [Hosenkoside A] | 15% | 19% | – | – |
| CC1=CC(=O)C2(C(C)C)CC12 (stereo not shown) [Umbellulone] | 0% | 1% | – | – |
| C=C1c2cccc(O)c2C(=O)C2=C(O)[C@]3(O)C(=O)C(C(N)=O)=C(O)[C@@H](N(C)C)[C@@H]3[C@@H](O)[C@H]12.Cl [Methacycline (hydrochloride)] | 17% | 20% | – | – |
| COc1ccc(C2COc3cc(O)ccc3C2)c(O)c1OC (stereo not shown) [Isomucronulatol] | 7% | 7% | – | – |
| C[C@@H]1O[C@@H](OC[C@H]2O[C@@H](Oc3c(-c4ccc(OCCO)c(OCCO)c4)oc4cc(OCCO)cc(O)c4c3=O)[C@H](O)[C@@H](O)[C@@H]2O)[C@H](O)[C@H](O)[C@H]1O [Troxerutin] | 0% and 3% | 0% and 6% | – | – |
| CO/N=C(\C(=O)N[C@@H]1C(=O)N2C(C(=O)[O-])=CCS[C@H]12)c1csc(N)n1.[Na+] [Ceftizoxime (sodium)] | 0% | 3% | – | – |
| Oc1ccc2c(c1)OC[C@H]1c3cc4c(cc3O[C@@H]21)OCO4 [(-)-Maackiain] | 26% | 26% | – | – |
| C/C1=C2/[N-][C@H]([C@H](CC(N)=O)[C@@]2(C)CCC(=O)NC[C@@H](C)OP(=O)([O-])O[C@H]2[C@@H](O)[C@@H](n3cnc4cc(C)c(C)cc43)O[C@@H]2CO)[C@]2(C)N=C(/C(C)=C3N=C(/C=C4N=C1[C@@H](CCC(N)=O)C\4(C)C)[C@@H](CCC(N)=O)[C@]\3(C)CC(N)=O)[C@@H](CCC(N)=O)[C@]2(C)CC(N)=O.[CH2-][C@H]1O[C@@H](n2cnc3c(N)ncnc32)[C@H](O)[C@@H]1O.[Co] [Adenosylcobalamin] | 20% | 22% | – | – |
| CC1=COC(=O)[C@H]2[C@@H]1CC[C@@H]2C [4aα,7α,7aα-Nepetalactone] | 17% | 16% | – | – |
| C[C@@H]1O[C@@H](c2c(O)c([C@@H]3O[C@H](CO)[C@@H](O)[C@H](O)[C@H]3O)c3oc(-c4ccc(O)cc4)cc(=O)c3c2O)[C@H](O)[C@H](O)[C@H]1O [Isoviolanthin] | 21% | 2% | – | – |
| COc1ccc2c3c1O[C@H]1C[C@@H](O)C=C[C@@]31CCNC2 [N‐Desmethyl Galanthamine] | 0% | 0% | – | – |
| CN1CCCN=C1/C=C/c1cccc(O)c1.O=C(O)c1cc2ccccc2c(Cc2c(O)c(C(=O)O)cc3ccccc23)c1O [Oxantel (pamoate)] | 54% | 33% | – | – |
| CN[C@@H](C)[C@H]1[C@H](O)C[C@@]2(C)[C@@H]3CC[C@H]4C(C)(C)[C@@H](NC)CC[C@@]45C[C@@]35CC[C@]12C [Cyclovirobuxine D] | 20% | 0% | – | – |
| CC1(O)CCC(C(C)(C)O)CC1.O (stereo not shown) [Terpin (hydrate)] | 9% | 5% | – | – |
| COC(=O)[C@]1(C)CC[C@]2(C(=O)O[C@@H]3O[C@H](CO)[C@@H](O)[C@H](O)[C@H]3O)CC[C@]3(C)C(=CC[C@@H]4[C@@]5(C)C[C@H](O)[C@H](O[C@@H]6OC[C@@H](O[C@@H]7O[C@H](CO)[C@@H](O)[C@H](O)[C@H]7O)[C@H](O)[C@H]6O)[C@@](C)(CO)C5CC[C@]43C)[C@H]2C1 (stereo partly shown) [Esculentoside H] | 0% | 17% | – | – |
| COC1=C[C@@H]2[C@@H]3Cc4ccc(OC)c(O)c4[C@]2(CCN3C)CC1=O [Sinomenine] | – | 3% and 0% | – | – |
| CC(=O)C1CCC2C3CC=C4CC(OS(=O)(=O)O)CCC4(C)C3CCC12C (stereo not shown) [Pregnenolone monosulfate] | 0% | 4% | – | – |
